The text below walks through data of ChEMBL document CHEMBL3351783, “Structural insights into carbonic anhydrase IX isoform specificity of carbohydrate-based sulfamates” (J Med Chem, 2014).

The Ki is a dissociation constant, usually derived from enzyme kinetics or from competition with a known ligand.

One experiment deals with Carbonic anhydrase 1 (Homo sapiens, UniProt P00915). The experiment in a line: Inhibition of human recombinant carbonic anhydrase 1 by stopped-flow CO2 hydration assay.
Chain of Carbonic anhydrase 1 (P00915 whole entry): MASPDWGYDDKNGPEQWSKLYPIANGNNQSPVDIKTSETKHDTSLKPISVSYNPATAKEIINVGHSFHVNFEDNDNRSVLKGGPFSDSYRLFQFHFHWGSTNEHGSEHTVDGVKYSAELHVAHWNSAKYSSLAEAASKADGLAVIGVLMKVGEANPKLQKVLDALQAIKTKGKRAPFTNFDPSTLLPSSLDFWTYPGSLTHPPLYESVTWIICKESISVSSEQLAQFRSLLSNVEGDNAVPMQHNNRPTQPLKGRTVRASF
Consider `NS(=O)(=O)OC1CCN(S(=O)(=O)[C@@H]2O[C@H](CO)[C@@H](O)[C@H](O)[C@H]2O)CC1`, for which the Ki is greater than 20000 nM.

In the case of `COC(=O)[C@H](CS(N)(=O)=O)NS(=O)(=O)[C@@H]1O[C@H](COC(C)=O)[C@@H](OC(C)=O)[C@H](OC(C)=O)[C@H]1OC(C)=O`, the inhibition constant Ki is greater than 20000 nM.

In a further experiment the target is Carbonic anhydrase 9 (Homo sapiens, UniProt Q16790). In words: Inhibition of human recombinant carbonic anhydrase 9 by stopped-flow CO2 hydration assay.
As for `CC(=O)OC[C@H]1O[C@@H](S(=O)(=O)NCCCOS(N)(=O)=O)[C@H](OC(C)=O)[C@@H](OC(C)=O)[C@@H]1OC(C)=O`, the Ki is 215 nM.

Consider `NS(=O)(=O)O[C@@H]1CCN(S(=O)(=O)[C@@H]2O[C@H](CO)[C@@H](O)[C@H](O)[C@H]2O)C1`, for which the inhibitory constant (Ki) amounted to 2 nM.

Take `NS(=O)(=O)OCCCNS(=O)(=O)[C@@H]1O[C@H](CO)[C@@H](O)[C@H](O)[C@H]1O`: the inhibition constant (Ki) stood at 2 nM.

As to `CC(=O)OC[C@H]1O[C@@H](S(=O)(=O)N2CC[C@@H](OS(N)(=O)=O)C2)[C@H](OC(C)=O)[C@@H](OC(C)=O)[C@@H]1OC(C)=O`, the Ki worked out at 2 nM.

`COC(=O)[C@@H]1C[C@@H](OS(N)(=O)=O)CN1S(=O)(=O)[C@@H]1O[C@H](COC(C)=O)[C@@H](OC(C)=O)[C@H](OC(C)=O)[C@H]1OC(C)=O`: the inhibitory constant (Ki) is 2 nM.
